Assay [1] addresses T1, Serine/threonine-protein kinase 36 (Homo sapiens) (UniProt Q9NRP7).
T1 sequence (whole entry): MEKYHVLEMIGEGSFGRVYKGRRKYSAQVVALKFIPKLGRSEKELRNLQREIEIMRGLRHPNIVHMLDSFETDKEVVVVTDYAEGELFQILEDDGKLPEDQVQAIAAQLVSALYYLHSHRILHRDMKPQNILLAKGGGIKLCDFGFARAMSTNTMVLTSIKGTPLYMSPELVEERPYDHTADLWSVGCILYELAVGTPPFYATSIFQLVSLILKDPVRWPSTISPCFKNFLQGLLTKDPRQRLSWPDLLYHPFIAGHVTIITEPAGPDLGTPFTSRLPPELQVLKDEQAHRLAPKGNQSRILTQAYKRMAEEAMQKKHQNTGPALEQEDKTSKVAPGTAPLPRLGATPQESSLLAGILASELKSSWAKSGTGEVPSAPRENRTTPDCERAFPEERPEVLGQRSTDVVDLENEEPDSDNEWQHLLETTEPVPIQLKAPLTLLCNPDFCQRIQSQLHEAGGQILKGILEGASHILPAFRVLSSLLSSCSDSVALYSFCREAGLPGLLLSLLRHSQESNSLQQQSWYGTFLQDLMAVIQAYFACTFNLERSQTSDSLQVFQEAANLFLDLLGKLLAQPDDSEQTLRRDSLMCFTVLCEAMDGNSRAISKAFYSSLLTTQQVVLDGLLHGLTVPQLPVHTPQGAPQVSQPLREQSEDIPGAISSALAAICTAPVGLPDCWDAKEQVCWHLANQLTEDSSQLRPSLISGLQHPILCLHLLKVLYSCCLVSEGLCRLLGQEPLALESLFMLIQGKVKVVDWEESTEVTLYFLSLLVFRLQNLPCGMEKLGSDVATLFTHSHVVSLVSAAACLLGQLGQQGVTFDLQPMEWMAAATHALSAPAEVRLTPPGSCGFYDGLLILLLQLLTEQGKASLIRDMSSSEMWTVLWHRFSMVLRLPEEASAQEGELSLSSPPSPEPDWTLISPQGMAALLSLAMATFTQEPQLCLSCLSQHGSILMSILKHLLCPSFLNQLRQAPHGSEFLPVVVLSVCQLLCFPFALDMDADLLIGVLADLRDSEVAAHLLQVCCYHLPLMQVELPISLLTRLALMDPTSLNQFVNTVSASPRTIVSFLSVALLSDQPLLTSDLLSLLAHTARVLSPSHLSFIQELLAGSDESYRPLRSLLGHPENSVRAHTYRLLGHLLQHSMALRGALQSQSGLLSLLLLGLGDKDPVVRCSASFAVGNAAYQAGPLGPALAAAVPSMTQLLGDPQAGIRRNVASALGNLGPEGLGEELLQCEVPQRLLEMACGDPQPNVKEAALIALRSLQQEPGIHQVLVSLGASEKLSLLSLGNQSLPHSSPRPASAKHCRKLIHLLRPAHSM
In words: Selectivity interaction (KinomeScan (DiscoverX)) EUB0000595a STK36. To be noted: at 10 µM.

Assay [2] deals with Dual specificity mitogen-activated protein kinase kinase 2 (Homo sapiens) (UniProt P36507). In words: Selectivity interaction (ActivX KiNativ screen (kinase selectivity in THP-1 cell lysates)) EUB0000639a MAP2K2. It counts as subcellular. To be noted: lysate, at 5 µM.
The target of assay [3] is T2, Dual specificity mitogen-activated protein kinase kinase 6 (Homo sapiens) (UniProt P52564).
T2 sequence (whole entry): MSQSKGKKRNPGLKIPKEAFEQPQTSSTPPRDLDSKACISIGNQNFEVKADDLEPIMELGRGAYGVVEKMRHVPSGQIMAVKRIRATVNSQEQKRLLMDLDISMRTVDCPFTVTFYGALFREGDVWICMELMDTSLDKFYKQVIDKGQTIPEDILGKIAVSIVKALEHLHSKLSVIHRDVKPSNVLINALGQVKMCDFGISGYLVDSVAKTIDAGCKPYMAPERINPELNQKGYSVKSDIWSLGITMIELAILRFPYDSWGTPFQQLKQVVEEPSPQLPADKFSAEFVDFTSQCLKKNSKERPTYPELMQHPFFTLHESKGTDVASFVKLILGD
In words: Selectivity interaction (KinomeScan (DiscoverX)) EUB0000618a MAP2K6. Particulars: at 10 µM.

In assay [4] the target is T3, Bromodomain and PHD finger-containing protein 3 (Homo sapiens) (UniProt Q9ULD4).
T3 sequence (whole entry): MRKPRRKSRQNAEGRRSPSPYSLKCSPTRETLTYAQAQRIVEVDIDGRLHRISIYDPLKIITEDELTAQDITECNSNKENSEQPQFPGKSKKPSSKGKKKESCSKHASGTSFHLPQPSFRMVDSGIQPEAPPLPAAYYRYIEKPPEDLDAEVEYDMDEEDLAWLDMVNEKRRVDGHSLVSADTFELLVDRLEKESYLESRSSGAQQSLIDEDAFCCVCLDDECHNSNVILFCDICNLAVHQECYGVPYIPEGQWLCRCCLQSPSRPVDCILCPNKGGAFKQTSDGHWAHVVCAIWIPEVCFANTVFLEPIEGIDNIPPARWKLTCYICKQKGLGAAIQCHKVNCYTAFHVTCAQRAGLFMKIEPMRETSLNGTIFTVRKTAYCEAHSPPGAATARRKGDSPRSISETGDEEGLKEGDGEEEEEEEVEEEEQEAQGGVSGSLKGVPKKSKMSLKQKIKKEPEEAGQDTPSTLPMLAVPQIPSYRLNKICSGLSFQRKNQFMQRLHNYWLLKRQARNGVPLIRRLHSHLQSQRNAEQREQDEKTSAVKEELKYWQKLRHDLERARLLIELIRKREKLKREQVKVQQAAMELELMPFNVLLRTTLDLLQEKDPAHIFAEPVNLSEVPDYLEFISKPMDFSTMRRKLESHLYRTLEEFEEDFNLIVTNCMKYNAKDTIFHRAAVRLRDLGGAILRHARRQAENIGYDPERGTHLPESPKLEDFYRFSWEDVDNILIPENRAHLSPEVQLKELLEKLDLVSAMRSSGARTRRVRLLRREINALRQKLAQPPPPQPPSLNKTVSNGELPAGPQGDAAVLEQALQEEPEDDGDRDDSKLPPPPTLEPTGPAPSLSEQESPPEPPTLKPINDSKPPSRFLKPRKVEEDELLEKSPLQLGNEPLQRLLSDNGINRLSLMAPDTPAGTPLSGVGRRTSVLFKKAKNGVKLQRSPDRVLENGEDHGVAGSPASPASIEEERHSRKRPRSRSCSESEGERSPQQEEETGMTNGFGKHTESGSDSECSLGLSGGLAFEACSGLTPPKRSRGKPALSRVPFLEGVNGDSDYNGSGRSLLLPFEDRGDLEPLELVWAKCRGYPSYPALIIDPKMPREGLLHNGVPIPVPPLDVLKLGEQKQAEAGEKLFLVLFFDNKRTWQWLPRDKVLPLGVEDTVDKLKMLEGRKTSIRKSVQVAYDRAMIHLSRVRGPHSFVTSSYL
In words: Selectivity interaction (Human bromodomain panel (DSF assay)) EUB0000233b BRPF3.

Assay [5] deals with Sodium channel protein type 2 subunit alpha (Homo sapiens) (UniProt Q99250). In words: Selectivity interaction (Panel of non-epigenetic targets (kinases, GPCRs, ion channels, and transporters, Eurofins) ) EUB0000271b SCN2A. Particulars: at 1 µM.

Each structure is given as a SMILES string. Some results are limits rather than exact numbers.

Chain of Dual specificity mitogen-activated protein kinase kinase 2 (Homo sapiens) (P36507 whole entry): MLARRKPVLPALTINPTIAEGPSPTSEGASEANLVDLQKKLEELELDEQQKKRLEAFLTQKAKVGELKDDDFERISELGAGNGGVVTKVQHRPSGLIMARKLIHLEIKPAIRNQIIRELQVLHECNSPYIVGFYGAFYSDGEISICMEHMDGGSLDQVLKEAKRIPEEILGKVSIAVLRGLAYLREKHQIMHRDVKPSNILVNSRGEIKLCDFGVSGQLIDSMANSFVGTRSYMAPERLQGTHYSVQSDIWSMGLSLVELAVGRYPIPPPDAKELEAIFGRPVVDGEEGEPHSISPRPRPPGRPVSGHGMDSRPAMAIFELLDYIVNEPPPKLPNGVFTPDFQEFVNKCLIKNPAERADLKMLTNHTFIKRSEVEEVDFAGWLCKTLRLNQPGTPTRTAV
Chain of Sodium channel protein type 2 subunit alpha (Homo sapiens) (Q99250 whole entry, looked up): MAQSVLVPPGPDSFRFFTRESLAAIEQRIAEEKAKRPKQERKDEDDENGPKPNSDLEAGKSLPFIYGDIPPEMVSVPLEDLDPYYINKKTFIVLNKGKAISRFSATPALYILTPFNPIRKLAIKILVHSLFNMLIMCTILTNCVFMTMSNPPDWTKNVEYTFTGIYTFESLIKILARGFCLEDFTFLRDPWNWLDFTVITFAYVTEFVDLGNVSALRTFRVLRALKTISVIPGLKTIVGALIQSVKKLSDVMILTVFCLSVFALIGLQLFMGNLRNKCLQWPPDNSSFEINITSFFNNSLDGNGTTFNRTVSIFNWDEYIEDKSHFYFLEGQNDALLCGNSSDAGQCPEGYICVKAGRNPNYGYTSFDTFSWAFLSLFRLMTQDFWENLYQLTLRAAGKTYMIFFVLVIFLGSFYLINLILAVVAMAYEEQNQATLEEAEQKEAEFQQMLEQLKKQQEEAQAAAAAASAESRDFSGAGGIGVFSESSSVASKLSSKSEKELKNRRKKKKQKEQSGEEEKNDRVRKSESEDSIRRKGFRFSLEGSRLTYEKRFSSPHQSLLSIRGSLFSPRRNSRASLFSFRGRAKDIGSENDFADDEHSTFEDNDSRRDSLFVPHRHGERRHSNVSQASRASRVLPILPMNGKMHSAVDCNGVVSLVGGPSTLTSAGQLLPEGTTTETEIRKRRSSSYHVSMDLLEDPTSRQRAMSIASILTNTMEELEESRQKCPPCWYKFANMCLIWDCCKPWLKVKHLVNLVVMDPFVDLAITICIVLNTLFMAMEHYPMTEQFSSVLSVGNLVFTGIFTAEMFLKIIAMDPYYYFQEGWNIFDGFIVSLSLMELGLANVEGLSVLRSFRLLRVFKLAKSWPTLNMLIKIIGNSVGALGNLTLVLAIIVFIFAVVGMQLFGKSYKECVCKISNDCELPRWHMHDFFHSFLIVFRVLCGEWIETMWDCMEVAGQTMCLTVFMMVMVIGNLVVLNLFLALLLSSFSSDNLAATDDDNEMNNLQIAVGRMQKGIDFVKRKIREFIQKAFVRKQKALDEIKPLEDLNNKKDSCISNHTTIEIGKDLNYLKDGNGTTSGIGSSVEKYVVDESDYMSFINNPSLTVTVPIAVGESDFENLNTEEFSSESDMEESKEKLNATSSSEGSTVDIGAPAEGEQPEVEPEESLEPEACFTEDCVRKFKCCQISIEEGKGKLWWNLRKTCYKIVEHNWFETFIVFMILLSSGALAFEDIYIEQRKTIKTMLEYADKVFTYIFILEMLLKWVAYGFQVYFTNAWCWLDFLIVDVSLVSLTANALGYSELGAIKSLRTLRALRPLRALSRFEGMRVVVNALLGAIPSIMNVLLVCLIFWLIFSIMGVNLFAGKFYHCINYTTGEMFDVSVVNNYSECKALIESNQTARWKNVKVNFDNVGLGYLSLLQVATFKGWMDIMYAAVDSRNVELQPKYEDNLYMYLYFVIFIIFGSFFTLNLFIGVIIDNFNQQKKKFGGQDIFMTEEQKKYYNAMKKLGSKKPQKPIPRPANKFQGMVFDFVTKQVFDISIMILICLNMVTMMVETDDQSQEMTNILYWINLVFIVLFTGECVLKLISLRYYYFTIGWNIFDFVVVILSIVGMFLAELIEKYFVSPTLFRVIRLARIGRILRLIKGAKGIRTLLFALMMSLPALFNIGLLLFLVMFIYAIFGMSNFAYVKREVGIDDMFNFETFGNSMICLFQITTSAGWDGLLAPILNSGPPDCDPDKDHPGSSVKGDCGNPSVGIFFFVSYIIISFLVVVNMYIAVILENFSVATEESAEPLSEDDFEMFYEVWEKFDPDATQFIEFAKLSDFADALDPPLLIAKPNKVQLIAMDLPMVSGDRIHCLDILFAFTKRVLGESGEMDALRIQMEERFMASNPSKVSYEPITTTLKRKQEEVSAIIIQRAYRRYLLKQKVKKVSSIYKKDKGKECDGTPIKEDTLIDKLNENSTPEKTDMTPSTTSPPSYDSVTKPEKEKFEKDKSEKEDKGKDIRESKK

In assay [1], `COCC(=O)NC/C=C/c1ccc2ncnc(Nc3ccc(Oc4ccc(C)nc4)c(C)c3)c2c1` [CP-724714] returned a % of control of 100%.
On to `CC[C@@H]1[C@H](F)C(=O)N[C@@H]1COc1nccc2cc(C(N)=O)c(OC)cc12` [ZIMLOVISERTIB], for which, in assay [2], the % of inhibition is -10.6%.
Turning to `O[C@H]1CC[C@H](Nc2ncc3nc(Nc4c(F)cc(F)cc4F)n([C@H]4CCOC4)c3n2)CC1`, the % of control in assay [3] is 88%.
In assay [4], `CN(C)CCCOc1ccc(-c2cc(NCCCn3cccn3)nc(S(C)(=O)=O)n2)cc1` registered a dTM of less than 2 K.
Turning to `Cc1cc(C)cc([C@@H]2c3cc(C)ccc3NC(=O)CN2C(=O)c2ccc(Br)s2)c1`, in assay [5], the % of inhibition is -22%.

(Values after ChEMBL document CHEMBL5465560, “Selectivity Literature for EUbOPEN Chemogenomic Library” (2024).)
